Results reported in patent publication US10376520B2, “Methods for the treatment of cardiovascular disorders” (Galapagos NV, priority 2015, dated 2019).

Tested on: Subjects With Active Crohn's Disease
Assay: [HDL] determination, Study 5 (Crohn's disease)
Assay type: in vivo, human
Description: Double-Blind, Randomized, Placebo-Controlled, Multi-Centre Study to Investigate the Efficacy and Safety of Compound 1 in Subjects With Active Crohn's Disease With Evidence of Mucosal Ulceration.
This is a double-blind, randomized, placebo-controlled, multi-centre Phase 2 study to investigate the efficacy and safety of Compound 1 administered once daily for the treatment of active CD with evidence of mucosal ulceration. The pharmacokinetics (including a PK substudy) and pharmacodynamics of Compound 1 and metabolite in CD will also be characterised.
A total of 180 eligible subjects will be randomized to receive Compound 1 or placebo in addition to their stable background treatment (eg, corticosteroids, aminosalicylates, or CD-related antibiotics). The study will consist of 2 parts, with total treatment duration of 20 weeks. Randomization in Part 1 will be stratified according the subject's previous anti-TNF exposure/response, CRP level at Screening, and oral corticosteroid use at visit Day −1.
After the first 10 weeks of treatment in Part 1, patients will be re-randomized for Part 2 as shown in the diagram below and will be stratified according to the subject's clinical response, previous anti-TNF exposure/response, and oral corticosteroid use at visit Day −1.
The following assays were conducted at Eurofins Global Central Laboratory, Bergschot 71, 4817 PA Breda, The Netherlands, and at Quest Diagnostics, Clinical Trials, Quest House, 125-135 Staines Road, Hounslow, Middlesex, TW3 3JB, United Kingdom. The assays for Study 5 were performed at BARC Europe, 3B, Industrie Park, Zwijnaarde, B-9052 Ghent, Belgium.
This assay relies on a homogeneous enzymatic colorimetric test. In the presence of magnesium ions, dextran sulfate selectively forms water-soluble complexes with LDL, VLDL and chylomicrons which are resistant to PEG-modified enzymes.
The cholesterol concentration of [HDL]-cholesterol is determined enzymatically by cholesterol esterase and cholesterol oxidase coupled with PEG to the amino groups (approx. 40%).
In the presence of peroxidase, the hydrogen peroxide generated reacts with 4-amino-antipyrine and Sodium N-(2-hydroxy-3-sulfopropyl)-3,5-dimethoxyaniline (HSDA) to form a purple-blue dye. The color intensity of this dye is directly proportional to the cholesterol concentration and is measured photometrically.
Human serum and plasma samples [HDL] determination was done on a Roche/Hitachi Cobas c 701/702 system which automatically calculate the analyte concentration of each sample. Samples containing precipitates are centrifuged before performing the assay.

[1] = 200 mg q.d. continued to week 20; week 2
[2] = 200 mg q.d. continued to week 20; week 4
[3] = 200 mg q.d. continued to week 20; week 6
[4] = 200 mg q.d. continued to week 20; week 10
[5] = 200 mg q.d. continued to week 20; week 12
[6] = 200 mg q.d. continued to week 20; week 16
[7] = 200 mg q.d. continued to week 20; week 20
[8] = 200 mg q.d. week 0 to 10, then 100 mg q.d. (N = 30), week 2
[9] = 200 mg q.d. week 0 to 10, then 100 mg q.d. (N = 30), week 4
[10] = 200 mg q.d. week 0 to 10, then 100 mg q.d. (N = 30), week 6
[11] = 200 mg q.d. week 0 to 10, then 100 mg q.d. (N = 30), week 10
[12] = 200 mg q.d. week 0 to 10, then 100 mg q.d. (N = 30), week 12
[13] = 200 mg q.d. week 0 to 10, then 100 mg q.d. (N = 30), week 16
[14] = 200 mg q.d. week 0 to 10, then 100 mg q.d. (N = 30), week 20
[15] = 200 mg q.d. week 0 to 10, then placebo (N = 23), week 2
[16] = 200 mg q.d. week 0 to 10, then placebo (N = 23), week 4
[17] = 200 mg q.d. week 0 to 10, then placebo (N = 23), week 6
[18] = 200 mg q.d. week 0 to 10, then placebo (N = 23), week 10
[19] = 200 mg q.d. week 0 to 10, then placebo (N = 23), week 12
[20] = 200 mg q.d. week 0 to 10, then placebo (N = 23), week 16
[21] = 200 mg q.d. week 0 to 10, then placebo (N = 23), week 20
[22] = 200 mg q.d. week 0 to 10, to 100 mg q.d. week 10 to 20; week 2

O=C(Nc1nc2cccc(-c3ccc(CN4CCS(=O)(=O)CC4)cc3)n2n1)C1CC1 [Compound 1, cyclopropanecarboxylic acid {5-[4-(1,1-dioxo-thiomorpholin-4-ylmethyl)-phenyl]-[1,2,4]triazolo[1,5-a]pyridin-2yl}-amide]
[HDL] Mean CFB - 10 weeks results (200 mg q.d. (N = 130), week 2): 0.222 mmol/L | [HDL] Median CFB - 10 weeks results (200 mg q.d. (N = 130), week 2): 0.210 mmol/L | [HDL] Mean CFB - 10 weeks results (200 mg q.d. (N = 130), week 4): 0.237 mmol/L | [HDL] Median CFB - 10 weeks results (200 mg q.d. (N = 130), week 4): 0.210 mmol/L | [HDL] Mean CFB - 10 weeks results (200 mg q.d. (N = 130), week 6): 0.243 mmol/L | [HDL] Median CFB - 10 weeks results (200 mg q.d. (N = 130), week 6): 0.250 mmol/L | [HDL] Mean CFB - 10 weeks results (200 mg q.d. (N = 130), week 10): 0.239 mmol/L | [HDL] Median CFB - 10 weeks results (200 mg q.d. (N = 130), week 10): 0.260 mmol/L | [HDL] Median CFB - 10 weeks results (200 mg q.d. (N = 130); week 2): 16.867% | [HDL] Median CFB - 10 weeks results (200 mg q.d. (N = 130); week 4): 15.333% | [HDL] Median CFB - 10 weeks results (200 mg q.d. (N = 130); week 6): 16.867% | [HDL] Median CFB - 10 weeks results (200 mg q.d. (N = 130); week 10): 15.789% | [HDL] Mean CFB - 20 weeks results [1]: 18.29% | [HDL] Median CFB - 10 weeks results [1]: 17.33% | [HDL] Mean CFB - 20 weeks results [2]: 15.66% | [HDL] Median CFB - 10 weeks results [2]: 9.91% | [HDL] Mean CFB - 20 weeks results [3]: 19.93% | [HDL] Median CFB - 10 weeks results [3]: 13.98% | [HDL] Mean CFB - 20 weeks results [4]: 17.97% | [HDL] Median CFB - 10 weeks results [4]: 12.50% | [HDL] Mean CFB - 20 weeks results [5]: 16.97% | [HDL] Median CFB - 10 weeks results [5]: 9.94% | [HDL] Mean CFB - 20 weeks results [6]: 13.90% | [HDL] Median CFB - 10 weeks results [6]: 12.22% | [HDL] Mean CFB - 20 weeks results [7]: 11.15% | [HDL] Median CFB - 10 weeks results [7]: 10.66% | [HDL] Mean CFB - 20 weeks results [8]: 0.24 mmol/L | [HDL] Median CFB - 20 weeks results [8]: 0.22 mmol/L | [HDL] Mean CFB - 20 weeks results [9]: 0.31 mmol/L | [HDL] Median CFB - 20 weeks results [9]: 0.22 mmol/L | [HDL] Mean CFB - 20 weeks results [10]: 0.33 mmol/L | [HDL] Median CFB - 20 weeks results [10]: 0.31 mmol/L | [HDL] Mean CFB - 20 weeks results [11]: 0.33 mmol/L | [HDL] Median CFB - 20 weeks results [11]: 0.26 mmol/L | [HDL] Mean CFB - 20 weeks results [12]: 0.17 mmol/L | [HDL] Median CFB - 20 weeks results [12]: 0.15 mmol/L | [HDL] Mean CFB - 20 weeks results [13]: 0.11 mmol/L | [HDL] Median CFB - 20 weeks results [13]: 0.03 mmol/L | [HDL] Mean CFB - 20 weeks results [14]: 0.18 mmol/L | [HDL] Median CFB - 20 weeks results [14]: 0.16 mmol/L | [HDL] Mean CFB - 20 weeks results [15]: 0.18 mmol/L | [HDL] Median CFB - 20 weeks results [15]: 0.18 mmol/L | [HDL] Mean CFB - 20 weeks results [16]: 0.30 mmol/L | [HDL] Median CFB - 20 weeks results [16]: 0.39 mmol/L | [HDL] Mean CFB - 20 weeks results [17]: 0.15 mmol/L | [HDL] Median CFB - 20 weeks results [17]: 0.16 mmol/L | [HDL] Mean CFB - 20 weeks results [18]: 0.16 mmol/L | [HDL] Median CFB - 20 weeks results [18]: 0.24 mmol/L | [HDL] Mean CFB - 20 weeks results [19]: -0.12 mmol/L | [HDL] Median CFB - 20 weeks results [19]: -0.03 mmol/L | [HDL] Mean CFB - 20 weeks results [20]: -0.18 mmol/L | [HDL] Median CFB - 20 weeks results [20]: -0.05 mmol/L | [HDL] Mean CFB - 20 weeks results [21]: -0.21 mmol/L | [HDL] Median CFB - 20 weeks results [21]: -0.08 mmol/L | [HDL] Mean CFB - 20 weeks results [22]: 20.28% | [HDL] Median CFB - 10 weeks results [22]: 17.11%
